Assay results as given in patent US6399654B1, “Biflavanoids and derivatives thereof as antiviral agents” (priority 1995, dated 2002).
Values after ≈ are worked out from the molar mass of the structure shown. Values joined by “and” are separate entries in the source; they are usually repeats but may differ in a detail not shown here. Equal values may be shown once. Read-outs that look alike come from different tables or passages of the source. Marks after values point to notes of the source that are not given here.

Tests used:
[1] = tested on: Influenza A (H3N2) Beijing/32/92; assay: microbe, parasite or virus in culture; assay type: cell-based, influenza A virus; settings: Influenza A virus, read-out: Neutral Red EC50
[2] = in vitro; settings: dog
[3] = tested on: Influenza A (H3N2) Beijing/32/92; assay: microbe, parasite or virus in culture; assay type: cell-based, influenza A virus; settings: Influenza A virus, read-out: CPE Inhibition EC50
[4] = tested on: Respiratory Syncytial Virus; assay: microbe, parasite or virus in culture; assay type: cell-based; settings: human respiratory syncytial virus, MA104; read-out: Neutral Red EC50
[5] = in vitro; settings: human
[6] = tested on: Parainfluenza Type 3 Virus; assay: organism not typed; assay type: cell-based; settings: MA104, read-out: Neutral Red EC50
[7] = in vitro; settings: African green monkey
[8] = tested on: Parainfluenza Type 3 Virus; assay: organism not typed; assay type: cell-based
[9] = tested on: Adenovirus Type 5; assay: Adenovirus type 5 neutral red dye uptake in A549 cells; assay type: cell-based; settings: Human mastadenovirus C, A549, read-out: Neutral Red EC50
[10] = in vitro; settings: dog, Neutral Red IC50 (cytotoxic)
[11] = tested on: Measles Virus; assay: microbe, parasite or virus in culture; assay type: cell-based; settings: Measles morbillivirus
[12] = tested on: Measles Virus; assay: Measles virus neutral red dye uptake in BSC-1 cells; assay type: cell-based; settings: Measles morbillivirus, BSC-1
[13] = tested on: HIV-1 (strain LAV-1); assay: microbe, parasite or virus in culture; assay type: cell-based
[14] = tested on: HSV-2; assay: HSV-2 CPE inhibition in HFF cells
[15] = tested on: Influenza B Panama/45/90; assay: microbe, parasite or virus in culture; assay type: cell-based; settings: Influenza B virus, MDCK, read-out: Neutral Red EC50
[16] = tested on: Influenza A (H1N1) Texas/36/91; assay: microbe, parasite or virus in culture; assay type: cell-based, influenza A virus; settings: Influenza A virus, read-out: Neutral Red EC50
[17] = tested on: Influenza B Panama/45/90; assay: microbe, parasite or virus in culture; assay type: cell-based; settings: Influenza B virus, MDCK, read-out: CPE Inhibition EC50
[18] = tested on: HCMV; assay: HCMV CPE inhibition in HFF cells
[19] = tested on: VZV; assay: VZV plaque reduction assay in HFF cells
[20] = in vitro; settings: human; remark: listed apart in the source
[21] = in vitro; settings: African green monkey, Neutral Red IC50 (cytotoxic)
[22] = tested on: human PBM cells
[23] = tested on: African green monkey kidney (MA-104) cells
[24] = tested on: Adenovirus Type 5; assay: microbe, parasite or virus in culture; assay type: cell-based; settings: Human mastadenovirus C, A549, read-out: CPE Inhibition EC50
[25] = tested on: HSV-1; assay: HSV-1 CPE inhibition in HFF cells
[26] = biological target: T1, HIV-1 RT (Human immunodeficiency virus type 1 group M subtype B, UniProt P03366); assay: Anti-HIV-1 RT assay (recombinant enzyme); assay type: biochemical
T1 construct: made in house; host or cells: Escherichia coli

[27] = tested on: Hepatitis B Virus (HBV); assay: Inhibition of HBV replication in 2.2.15 cells, extracellular (virion) HBV DNA; settings: Hepatitis B virus, 216 h;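 further: extracellular virion HBV DNA in culture medium measured by slot blot hybridization with a 32P-labeled HBV probe, quantified against HBV DNA standards, after 9 days of daily dosing, compared with day 0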
Procedure: Test compounds were added daily for a nine continuous day period; the culture medium was collected and stored for analysis of extracellular (virion) HBV DNA after 0, 3, 6, and 9 days of treatment. The treated cells were lysed 24 hours following day 9 of treatment for the analysis of intracellular HBV genomic forms. The overall levels of HBV DNA (both extracellular and intracellular DNA) and the relative rate of HBV replication (intracellular DNA) were analyzed quantitatively. The analysis was performed using blot hybridization techniques and [^32P]-labeled HBV-specific probes. The HBV DNA levels were measured by comparison to known amounts of HBV DNA standards applied to every nitrocellulose membrane (gel or slot blot). An AMBIS beta scanner, which measures the radioactive decay of the hybridized probes directly from the nitrocellulose membranes, was used for the quantitative analysis. Standard curves, generated by multiple analyses, were used to correlate CPM measurements made by the beta scanner with relative levels of target HBV DNA. The levels of HBV virion DNA released into the culture medium were analyzed by a slot blot hybridization procedure. HBV DNA levels were then compared to those at day 0 to determine the effect of the test compound. A known positive drug was evaluated in parallel with test compounds in each test.
Determination of therapeutic concentrations (EC50 and EC90) and toxicity concentrations (IC50) were determined as previously described (90). Stock solutions of text drugs were prepared in DMSO. Culture medium was changed daily and analyzed for extracellular HBV DNA after nine days of continuous drug exposure. Extracellular HBV DNA was extracted from the culture media and analyzed by a slot blot hydridization technique, using a ^32P-labeled Eco RI HBV DNA fragment, as previously described (91), and quantitated via comparison to HBV standards on a nitrocellulose filter, using an AMBIS beta scanner. Toxicity was determined by measuring inhibition of neutral red dye uptake. […] Effective concentration values for individual agents are the mean of six cultures per concentration point. Toxicity values are the mean of three cultures per concentration point.

[28] = tested on: Influenza A (H1N1) Texas/36/91; assay: microbe, parasite or virus in culture; assay type: cell-based, influenza A virus; settings: Influenza A virus, read-out: CPE Inhibition EC50
[29] = in vitro; settings: African green monkey; remark: listed apart in the source
[30] = in vitro; settings: African green monkey; remark: listed apart in the source
[31] = tested on: Respiratory Syncytial Virus; assay: microbe, parasite or virus in culture; assay type: cell-based; settings: human respiratory syncytial virus, MA104, read-out: CPE Inhibition EC50
[32] = tested on: Madin Darby canine kidney (MDCK) cells; settings: dog
[33] = tested on: Influenza A (A/NWS/33 (H1N1)); assay: Influenza A virus infection in mice; assay type: in vivo, BALB/c mice
Procedure: Animals: Female 13-15 g specific pathogen-free BALB/c mice were obtained form Simonsen Laboratories (Gilroy, Calif.). They were quarantined 24 h prior to use, and maintained on Wayne Lab Blox and tap water. After being infected, their drinking water contained 0.006% oxytetracycline (Pfizer, New York, N.Y.) to control possible secondary bacterial infections.
Virus: A/NWS/33 (H1N1) was obtained from K. W. Cochran, Univ. of Michigan (Ann Arbor, Mich.). A virus pool was prepared in MDCK cells; this was titrated in mice, ampuled, and stored at −80° C. until used.
Compounds: Robustaflavone was stored at room temperature until used. Ribavirin, used as a positive control, was obtained from ICN Pharmaceuticals (Costa Mesa, Calif.). Vehicles considered included DMSO (Sigma Chemical Co., St. Louis, Mo.), DMF (Sigma), PEG M. W. 200 (Aldrich Chemical Co. Milwaukee, Wis.), 0.4% CMC (Sigma) and 1-methyl-2-pyrrolidinone (MPD, Aldrich).
Arterial Oxygen Saturation (SaO2) Determinations: SaO2 was determined using the Ohmeda Blox 3740 pulse oximeter (Ohmeda, Louisville, Ohio)). The ear probe attachment was used, the probe placed on the thigh of the animal, with the slow instrument mode selected. Readings were made after a 30 second stabilization time on each animal. Use of this device for measuring effects of influenza virus on arterial oxygen saturation have been described.^72
Lung Virus Determinations: Each mouse lung was homogenized and varying dilutions assayed in triplicate for infectious virus in MDCK cells as described previously.^73
4. Effect of robustaflavone in CMC or in DMSO on influenza virus infection in mice. In the study with CMC, robustaflavone was used in dosages of 200 and 100 mg/kg/day; using DMSO vehicle, the dosages were 75 and 37.5 mg/kg/day, with the compound administered i.p. twice daily for 5 days beginning 4 h pre-virus exposure. The mice were used in each dose to monitor effects on SaO2 and death; from an additional group of similarly infected and treated mice, 3 animals were killed on days 3, 5, 7 and 9 to assay for lung score (0=normal, 4=maximal consolidation), weight, and virus titer. Three to four mice were used as toxicity controls, which were weighed prior to treatment and again 18 h after treatment termination, and deaths noted daily. […] Three sets of virus controls were used: Infected-untreated, infected-treated with CMC only, and infected-treated with DMSO only. Twenty animals were used in each of these control groups to monitor SaO2 and death, with 3 additional mice taken in parallel with treated animals to determine effects on lung consolidation and virus titer. Two sets of normal controls were used; one group of three mice was weighed and held in parallel with the toxicity controls. From the second group three mice were killed on days 3 and 9 for comparison of lung score and weight.
Statistical Evaluation: Increase in survivor number was evaluated using chi square analysis with Yates' correction. Mean survival time increases, virus titer and SaO2 value differences were analyzed by t-test. Lung consolidation scores were evaluated by ranked sum analysis.

[34] = MDCK, Influenza A (H3N2) Beijing/32/92
[35] = MDCK, Influenza A (H1N1) Texas/36/91
[36] = CPE Inhibition IC50 (cytotoxic)
[37] = ribavirin in saline, 75 mg/kg/day i.p. bid × 5

Compound: O=c1cc(-c2ccc(Oc3c(O)cc4oc(-c5ccc(O)cc5)cc(=O)c4c3O)cc2)oc2cc(O)cc(O)c12 [Hinokiflavone (4), hinokiflavone]
- EC50 [1, 34]: 1.9 µg/mL (≈ 3.53 µM)
- IC50 ([2]; CPE Inhibition IC50 (50% cell inhibitory (cytotoxic) concentration), Influenza A (H1N1) test): 1.4 µg/mL (≈ 2.6 µM)
- IC50 ([2]; CPE Inhibition IC50 (cytotoxic), Influenza A (H3N2) test): 1.3 µg/mL (≈ 2.41 µM)
- IC50 ([2]; CPE Inhibition IC50 (cytotoxic), Influenza B test): 1.2 µg/mL (≈ 2.23 µM)
- EC50 [3, 34]: > 3.2 µg/mL
- EC50 [4]: > 3.2 µg/mL
- IC50 [5]: 9.1 µM
- EC50 [6]: 5 µg/mL (≈ 9.29 µM)
- IC50 ([7]; CPE Inhibition IC50 (cytotoxic), Respiratory Syncytial Virus test): 2.5 µg/mL (≈ 4.64 µM)
- IC50 ([7]; CPI Inhibition IC50 (cytotoxic), Parainfluenza Type 3 Virus test): 1 µg/mL (≈ 1.86 µM)
- EC50 ([8]; MA104, Parainfluenza Type 3 Virus, read-out: CPI Inhibition EC50): > 1 µg/mL
- EC50 [9]: 19 µg/mL (≈ 35.3 µM)
- IC50 ([10]; Influenza A (H1N1) test): 2 µg/mL (≈ 3.71 µM)
- IC50 ([10]; Influenza A (H3N2) test): 2.2 µg/mL (≈ 4.09 µM)
- IC50 ([10]; Influenza B test): 2 µg/mL (≈ 3.71 µM)
- EC50 ([11]; BSC-1, Measles Virus, read-out: CPI Inhibition EC50): < 3 µg/mL
- EC50 [12]: < 5 µg/mL
- EC50 ([13]; Human immunodeficiency virus 1, PBMC, human PBM cells infected with HIV-1 (strain LAV), read-out: Ant-HIV-1 in PBM cells EC50): 4.1 µM
- Selective Index (SI) ([13]; PBM cells): <1
- HSV-2 SI (CC50/EC50) ([14]; HFF Cells): <319
- EC50 ([14]; Human alphaherpesvirus 2, HFF, read-out: HSV-2 CPE Inhibition EC50): > 20 µg/mL
- EC50 [15]: 1.9 µg/mL (≈ 3.53 µM)
- EC50 [16, 35]: 1.8 µg/mL (≈ 3.34 µM)
- EC50 [17]: > 1 µg/mL
- HCMV SI (CC50/EC50) ([18]; HFF Cells): <3.2
- EC50 ([18]; Human betaherpesvirus 5, HFF, read-out: HCMV CPE Inhibition EC50): > 0.8 µg/mL
- VZV SI (CC50/EC50) ([19]; HFF Cells): <4.2
- EC50 ([19]; Human alphaherpesvirus 3, HFF, read-out: VZV Plaque Reduction EC50): > 4 µg/mL
- CC50 at 14 days ([20]; HCMV CPE Inhibition CC50): 2.6 µg/mL (≈ 4.83 µM)
- CC50 at 3 days ([20]; HSV-1 CPE Inhibition CC50): 77.7 µg/mL (≈ 144 µM)
- CC50 at 3 days ([20]; HSV-2 CPE Inhibition CC50): 77.5 µg/mL (≈ 144 µM)
- CC50 at 10 days ([20]; VZV Plaque Reduction CC50): 16.8 µg/mL (≈ 31.2 µM)
- IC50 [21]: 6 µg/mL (≈ 11.1 µM)
- toxicity against uninfected PHA-stimulated human PBM cells (in words) [22]: high toxicity
- Neutral Red IC50 (cytotoxic) [23]: 7 µg/mL
- EC50 [24]: > 10 µg/mL
- HSV-1 SI (CC50/EC50) ([25]; HFF Cells): <3.9
- EC50 ([25]; Human alphaherpesvirus 1, HFF, read-out: HSV-1 CPE Inhibition EC50): > 20 µg/mL
- IC50 ([26]; Anti-HIV-1 RT IC50, values in parentheses or in words): 62 µM
- IC50 ([26]; HIV-1 RT IC50 (50% inhibition dose)): 65.4 µM and 62.6 µM
- inhibition at 200 µg/mL ([26]; read-out: Anti-HIV-1 RT % Inhibition at 200 μg/ml): 89%
- EC50 ([27]; read-out: EC50 (50% effective dose), HBV Virion, 2.2.15 cells, extracellular (virion) HBV DNA, 9 days treatment): > 100 µM
- EC90 ([27]; read-out: EC90 (90% effective dose), HBV Virion, 2.2.15 cells, extracellular (virion) HBV DNA, 9 days treatment): > 100 µM
- EC50 [28, 35]: > 1 µg/mL

Compound: NC(=O)c1ncn([C@@H]2O[C@H](CO)[C@@H](O)[C@H]2O)n1 [Ribavirin, ribavirin, reference compound]
- EC50 ([1]; H3N2, MDCK): 5.7 µg/mL (≈ 23.3 µM)
- IC50 ([2]; CPE Inhibition IC50 (50% cell inhibitory (cytotoxic) concentration)): 562 µg/mL (≈ 2300 µM)
- IC50 [2, 36]: 562 µg/mL (≈ 2300 µM)
- EC50 ([3]; H3N2, MDCK): 4.1 µg/mL (≈ 16.8 µM)
- EC50 [4]: 6 µg/mL (≈ 24.6 µM)
- EC50 [6]: 17 µg/mL (≈ 69.6 µM)
- IC50 [7, 36]: 120 µg/mL (≈ 491 µM)
- IC50 ([7]; CPI Inhibition IC50 (cytotoxic)): 245 µg/mL (≈ 1000 µM)
- IC50 [29]: 150 µg/mL (≈ 614 µM)
- EC50 ([8]; MA104, read-out: CPI Inhibition EC50): 25 µg/mL (≈ 102 µM)
- EC50 ([11]; BSC-1, read-out: CPI Inhibition EC50): 3 µg/mL (≈ 12.3 µM)
- EC50 [12]: 1 µg/mL (≈ 4.09 µM)
- EC50 [15]: 0.48 µg/mL (≈ 1.97 µM)
- EC50 ([16]; H1N1, MDCK): 1.4 µg/mL (≈ 5.73 µM)
- EC50 ([17]; Influenza B Panama/45/90): 1.5 µg/mL (≈ 6.14 µM)
- IC50 [30]: 150 µg/mL (≈ 614 µM)
- EC50 [31]: 12 µg/mL (≈ 49.1 µM)
- CPE Inhibition IC50 (cytotoxic) [32]: >1000 µg/mL
- inhibition of the infection, in words ([33]; ribavirin 75 mg/kg/day, positive control): highly active
- Infected, Treated MST [33, 37]: >21.0** days
- Infected, Treated Mean SaO2 [33, 37]: 87.1** %
- Infected, Treated Surv/Total [33, 37]: 10/10**
- EC50 ([28]; H1N1, MDCK): 1.9 µg/mL (≈ 7.78 µM)
